Laboratory results taken from ChEMBL document CHEMBL1140453, “Solid-phase synthesis and thermal denaturation study of cyclic PNAs targeting the HIV-1 TAR RNA loop” (Bioorg Med Chem Lett, 2007).

Assays:
Nucleic Acid [1] = assay: Binding affinity to HIV1 3B mini TAR RNA assessed as change in melting temperature by UV spectrometry based thermal denaturation assay; assay type: nucleic-acid assay; details: Human immunodeficiency virus 1
Nucleic Acid [2] = assay: Binding affinity to HIV1 3B mini TAR RNA assessed as melting temperature by UV spectrometry based thermal denaturation assay; assay type: nucleic-acid assay; details: Human immunodeficiency virus 1

SMILES	ΔTm (Nucleic Acid [1])	Tm (Nucleic Acid [2])
Cc1cn(CC(=O)N(CCNC(=O)CN(CCNC(=O)[C@@H](N)CCCCN)C(=O)Cn2cnc3c(=O)[nH]c(N)nc32)CC(=O)NCCN(CC(=O)NCCN(CC(=O)NCCN(CC(=O)NCCN(CC(=O)NCCN(CC(=O)NCCN(CC(=O)N[C@@H](CCC(N)=O)C(=O)O)C(=O)Cn2cnc3c(N)ncnc32)C(=O)Cn2cnc3c(=O)[nH]c(N)nc32)C(=O)Cn2cnc3c(N)ncnc32)C(=O)Cn2ccc(N)nc2=O)C(=O)Cn2ccc(N)nc2=O)C(=O)Cn2ccc(N)nc2=O)c(=O)[nH]c1=O	0.5 °C	40.5 °C
Cc1cn(CC(=O)N(CCNC(=O)CN(CCNC(=O)[C@@H](N)CCCCN)C(=O)Cn2cnc3c(=O)[nH]c(N)nc32)CC(=O)NCCN(CC(=O)NCCN(CC(=O)NCCN(CC(=O)NCCN(CC(=O)NCCN(CC(=O)NCCN(CC(=O)N[C@@H](CCC(N)=O)C(=O)O)C(=O)Cn2cnc3c(N)ncnc32)C(=O)Cn2cnc3c(=O)[nH]c(N)nc32)C(=O)Cn2cnc3c(N)ncnc32)C(=O)Cn2ccc(N)nc2=O)C(=O)Cn2cnc3c(N)ncnc32)C(=O)Cn2ccc(N)nc2=O)c(=O)[nH]c1=O	–	43.2 °C
